The values below come from ChEMBL document CHEMBL5506066, “Potency-Enhanced Peptidomimetic VHL Ligands with Improved Oral Bioavailability” (J Med Chem, 2024).

Test [1] deals with T1, von Hippel-Lindau disease tumor suppressor (Homo sapiens, UniProt P40337).
Test [2] addresses T1, von Hippel-Lindau disease tumor suppressor. Nature of the test: biochemical.
Description: Binding affinity to VHL (unknown origin)-NanoLuc fusion protein expressed in HEK293 cells assessed as apparent dissociation constant incubated for 30 mins in presence of digitonin by NanoBRET assay

T1 sequence (P40337 whole entry): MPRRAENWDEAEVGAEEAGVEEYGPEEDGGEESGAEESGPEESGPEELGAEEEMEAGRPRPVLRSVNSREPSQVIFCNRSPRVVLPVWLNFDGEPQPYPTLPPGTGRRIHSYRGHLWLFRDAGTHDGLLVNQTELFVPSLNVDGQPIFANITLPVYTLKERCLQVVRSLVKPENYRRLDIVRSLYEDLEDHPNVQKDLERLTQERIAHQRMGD

Turning to `CSCC[C@H](NC(C)=O)C(=O)N1C[C@H](O)C[C@H]1C(=O)N[C@H](Cc1ccc(-c2ccccc2)cc1)C(N)=O`, the Kd in test [1] was determined as 26.6 µM; in test [2] it was 8.9 µM.
Taken in the same sequence, the figures for `CC(=O)NC(C(=O)N1C[C@H](O)C[C@H]1C(=O)N[C@H](Cc1ccc(-c2ccccc2)cc1)C(N)=O)C12CC(C(F)(F)F)(C1)C2` (some centres undefined) were 6.6 µM and 2.4 µM.
`CC(=O)N[C@H](C(=O)N1C[C@H](O)C[C@H]1C(=O)N[C@H](C(N)=O)c1ccc(-c2scnc2C)cc1)C(C)(C)C`: the Kd in test [1] stood at 14 µM; in test [2] it was 2.15 µM.
Taken in the same sequence, the figures for `COc1ccc(-c2ccc(C[C@@H](NC(=O)[C@@H]3C[C@@H](O)CN3C(=O)[C@@H](NC(C)=O)C(C)(C)C)C(N)=O)cc2)cc1F` were > 57.5 µM and 21.2 µM.
Taken in the same sequence, the figures for `CC(=O)N[C@@H](CC1CC1)C(=O)N1C[C@H](O)C[C@H]1C(=O)N[C@H](Cc1ccc(-c2ccccc2)cc1)C(N)=O` were 31.1 µM and 12.9 µM.
Taken in the same sequence, the figures for `CC(=O)N[C@H](C(=O)N1C[C@H](O)C[C@H]1C(=O)N[C@H](Cc1ccc(-c2ccc(F)cn2)cc1)C(N)=O)C(C)(C)C` were 6.6 µM and 2.9 µM.
Regarding `CC(=O)NC1(C(=O)N2C[C@H](O)C[C@H]2C(=O)N[C@H](Cc2ccc(-c3ccccc3)cc2)C(N)=O)CCC1`, the Kd is > 57.5 µM in test [1] and > 51.8 µM in test [2].
In the case of `CC(=O)NC1(C(=O)N2C[C@H](O)C[C@H]2C(=O)N[C@H](Cc2ccc(-c3ccccc3)cc2)C(N)=O)CCCCC1`, the values for the Kd in test [1] and in test [2] were > 57.5 µM and > 51.8 µM, respectively.
For `CC(=O)N[C@H](C(=O)N1C[C@H](O)C[C@H]1C(=O)N[C@H](Cc1ccc(-c2ccccc2)cc1)C(N)=O)C(C)(C)c1ccccc1` the same measures were 4.6 µM and 3.1 µM.
Turning to `CC(=O)NC(C)(C)C(=O)N1C[C@H](O)C[C@H]1C(=O)N[C@H](Cc1ccc(-c2ccccc2)cc1)C(N)=O`, the Kd in test [1] was > 57.5 µM; in test [2], > 51.8 µM.
Taken in the same sequence, the figures for `CC(=O)N[C@]1(C(=O)N2C[C@H](O)C[C@H]2C(=O)N[C@H](Cc2ccc(-c3ccccc3)cc2)C(N)=O)CC1(C)C` were > 57.5 µM and > 51.8 µM.
Taken in the same sequence, the figures for `CC(=O)NCC(=O)N1C[C@H](O)C[C@H]1C(=O)N[C@H](Cc1ccc(-c2ccccc2)cc1)C(N)=O` were > 57.5 µM and > 51.8 µM.
For `NC(=O)[C@@H](Cc1ccc(-c2ccccc2)cc1)NC(=O)[C@@H]1C[C@@H](O)CN1C(=O)Cc1cnco1` the same measures were > 57.5 µM and > 51.8 µM.
For `CC(=O)NC1(C(=O)N2C[C@H](O)C[C@H]2C(=O)N[C@H](Cc2ccc(-c3ccccc3)cc2)C(N)=O)CC1`, the Kd in test [1] was > 57.5 µM; in test [2], > 51.8 µM.
For `CC(=O)N1CCCC[C@H]1C(=O)N1C[C@H](O)C[C@H]1C(=O)N[C@H](Cc1ccc(-c2ccccc2)cc1)C(N)=O` the same measures were 10.5 µM and 4.9 µM.
For `NC(=O)[C@@H](Cc1ccc(-c2ccccc2)cc1)NC(=O)[C@@H]1C[C@@H](O)CN1C(=O)Cc1ccon1` the same measures were > 57.5 µM and > 51.8 µM.
For `CC(=O)N[C@H](C(=O)N1C[C@H](O)C[C@H]1C(=O)N[C@H](Cc1ccc(-c2ccccc2)cc1)C(N)=O)C1CCNCC1` the same measures were > 57.5 µM and 11.5 µM.
Take `CC(=O)N[C@H](C(=O)N1C[C@H](O)C[C@H]1C(=O)N[C@H](Cc1ccc(C#N)cc1)C(N)=O)C(C)(C)C`: the Kd is > 57.5 µM in test [1] and 9 µM in test [2].
Taken in the same sequence, the figures for `CC(=O)N[C@H](C(=O)N1C[C@H](O)C[C@H]1C(=O)N[C@H](Cc1ccc(-c2ccccc2F)cc1)C(N)=O)C(C)(C)C` were 4.4 µM and 2.7 µM.
For `NC(=O)[C@@H](Cc1ccc(-c2ccccc2)cc1)NC(=O)[C@@H]1C[C@@H](O)CN1C(=O)Cn1ccnn1` the same measures were > 57.5 µM and > 51.8 µM.
Taken in the same sequence, the figures for `CC(=O)N1CCC[C@H]1C(=O)N1C[C@H](O)C[C@H]1C(=O)N[C@H](Cc1ccc(-c2ccccc2)cc1)C(N)=O` were > 57.5 µM and 12.7 µM.
Consider `CC(=O)N[C@H](C(=O)N1C[C@H](O)C[C@H]1C(=O)N[C@H](Cc1ccc(C)cc1)C(N)=O)C(C)(C)C`, for which the Kd in test [1] is > 57.5 µM; in test [2], > 51.8 µM.
For `CC(=O)N[C@H](C(=O)N1C[C@H](O)C[C@H]1C(=O)N[C@H](Cc1ccc(-c2ccccc2Cl)cc1)C(N)=O)C(C)(C)C` the same measures were 5.5 µM and 1.8 µM.
For `CC(=O)N[C@@H](Cc1cscn1)C(=O)N1C[C@H](O)C[C@H]1C(=O)N[C@H](Cc1ccc(-c2ccccc2)cc1)C(N)=O` the same measures were > 57.5 µM and 14.2 µM.
Taken in the same sequence, the figures for `CC(C)(C)n1nnc(CC(=O)N2C[C@H](O)C[C@H]2C(=O)N[C@H](Cc2ccc(-c3ccccc3)cc2)C(N)=O)n1` were > 57.5 µM and 48.6 µM.
As for `CC(=O)N[C@H](C(=O)N1C[C@H](O)C[C@H]1C(=O)N[C@H](Cc1ccc(I)cc1)C(N)=O)C(C)(C)C`, the Kd in test [1] was determined as 6.1 µM; in test [2] it was 2.6 µM.
For `Cc1cn(CC(=O)N2C[C@H](O)C[C@H]2C(=O)N[C@H](Cc2ccc(-c3ccccc3)cc2)C(N)=O)nn1` the same measures were > 57.5 µM and > 51.8 µM.
Regarding `COc1ccc(-c2ccc(C[C@@H](NC(=O)[C@@H]3C[C@@H](O)CN3C(=O)[C@@H](NC(C)=O)C(C)(C)C)C(N)=O)cc2)cc1`, the Kd in test [1] is > 57.5 µM; in test [2], 30.9 µM.
For `CC(=O)N[C@H](C(=O)N1C[C@H](O)C[C@H]1C(=O)N[C@H](Cc1ccc(-c2cccc(Cl)n2)cc1)C(N)=O)C(C)(C)C` the same measures were > 57.5 µM and 4.2 µM.
Turning to `CC(=O)N[C@H](C(=O)N1C[C@H](O)C[C@H]1C(=O)N[C@H](Cc1ccc(-c2ccccc2)cc1)C(N)=O)C1(C)CC1`, the figures for the Kd in test [1] and in test [2] were 15.4 µM and 3.9 µM, respectively.
Taken in the same sequence, the figures for `CC(=O)N[C@H](C(=O)N1C[C@H](O)C[C@H]1C(=O)N[C@H](Cc1ccc(-c2ccccc2)cc1)C(N)=O)C12CC3CC(CC(C3)C1)C2` were 0.68 µM and 0.41 µM.
For `CC(=O)N[C@H](C(=O)N1C[C@H](O)C[C@H]1C(=O)N[C@H](Cc1ccc(-c2ccccc2)cc1)C(N)=O)C1CCOCC1` the same measures were 17.8 µM and 2.9 µM.
Taken in the same sequence, the figures for `CC(=O)N[C@@H](Cc1ccccc1)C(=O)N1C[C@H](O)C[C@H]1C(=O)N[C@H](Cc1ccc(-c2ccccc2)cc1)C(N)=O` were > 57.5 µM and 18.1 µM.
`CC(=O)N[C@@]1(C(=O)N2C[C@H](O)C[C@H]2C(=O)N[C@H](Cc2ccc(-c3ccccc3)cc2)C(N)=O)CC1(C)C`: the Kd in test [1] is > 57.5 µM; in test [2] it was > 51.8 µM.
Turning to `CC(=O)N[C@@H](CCCN)C(=O)N1C[C@H](O)C[C@H]1C(=O)N[C@H](Cc1ccc(-c2ccccc2)cc1)C(N)=O`, the Kd was > 57.5 µM in test [1] and 17.3 µM in test [2].
Taken in the same sequence, the figures for `CC(=O)N[C@H](C(=O)N1C[C@H](O)C[C@H]1C(=O)N[C@H](Cc1ccc(C(C)(C)C)cc1)C(N)=O)C(C)(C)C` were > 57.5 µM and > 51.8 µM.
For `NC(=O)[C@@H](Cc1ccc(-c2ccccc2)cc1)NC(=O)[C@@H]1C[C@@H](O)CN1C(=O)Cc1cncs1` the same measures were > 57.5 µM and > 51.8 µM.
For `Cc1cc(CC(=O)N2C[C@H](O)C[C@H]2C(=O)N[C@H](Cc2ccc(-c3ccccc3)cc2)C(N)=O)on1` the same measures were 46.9 µM and 24.4 µM.
For the molecule `CC(=O)N[C@H](C(=O)N1C[C@H](O)C[C@H]1C(=O)N[C@@H](C(N)=O)c1ccc(-c2scnc2C)cc1)C(C)(C)C`, the Kd was 1.99 µM in test [1] and 0.21 µM in test [2].
For `CC(=O)N[C@H](C(=O)N1C[C@H](O)C[C@H]1C(=O)N[C@H](Cc1ccc(-c2ccccc2)cc1)C(N)=O)C1CCN(C(C)=O)CC1` the same measures were > 57.5 µM and 2.7 µM.
Taken in the same sequence, the figures for `COc1ccccc1-c1ccc(C[C@@H](NC(=O)[C@@H]2C[C@@H](O)CN2C(=O)[C@@H](NC(C)=O)C(C)(C)C)C(N)=O)cc1` were 12.2 µM and 4.3 µM.
For `Cc1ncc(CC(=O)N2C[C@H](O)C[C@H]2C(=O)N[C@H](Cc2ccc(-c3ccccc3)cc2)C(N)=O)s1` the same measures were > 57.5 µM and > 51.8 µM.
`NC(=O)[C@@H](Cc1ccc(-c2ccccc2)cc1)NC(=O)[C@@H]1C[C@@H](O)CN1C(=O)Cc1ccoc1`: the Kd was > 57.5 µM in test [1] and > 51.8 µM in test [2].
For `Cc1noc(CC(=O)N2C[C@H](O)C[C@H]2C(=O)N[C@H](Cc2ccc(-c3ccccc3)cc2)C(N)=O)n1` the same measures were > 57.5 µM and > 51.8 µM.
Take `CC(=O)N[C@H](C(=O)N1C[C@H](O)C[C@H]1C(=O)N[C@H](Cc1ccc(-c2ccccc2)cc1)C(N)=O)C(c1ccccc1)c1ccccc1`: the Kd in test [1] is > 57.5 µM; in test [2], 47 µM.
Consider `CSC[C@H](NC(C)=O)C(=O)N1C[C@H](O)C[C@H]1C(=O)N[C@H](Cc1ccc(-c2ccccc2)cc1)C(N)=O`, for which the Kd in test [1] worked out at 46.5 µM; in test [2] it was 18.6 µM.
Taken in the same sequence, the figures for `CC(=O)N[C@H](C(=O)N1C[C@H](O)C[C@H]1C(=O)N[C@H](Cc1ccc(-c2cccnc2)cc1)C(N)=O)C(C)(C)C` were 45.2 µM and 2.7 µM.
Taken in the same sequence, the figures for `CC(=O)N[C@H](C(=O)N1C[C@H](O)C[C@H]1C(=O)N[C@H](Cc1ccc(-c2ccc(F)c(Cl)c2)cc1)C(N)=O)C(C)(C)C` were 11 µM and 3.5 µM.
For `CC(=O)N[C@H](C(=O)N1C[C@H](O)C[C@H]1C(=O)N[C@H](Cc1ccc(-c2ccc(F)cc2)cc1)C(N)=O)C(C)(C)C` the same measures were 11.8 µM and 2.1 µM.
Consider `NC(=O)[C@@H](Cc1ccc(-c2ccccc2)cc1)NC(=O)[C@@H]1C[C@@H](O)CN1C(=O)Cc1ccccn1`, for which the Kd was > 57.5 µM in test [1] and > 51.8 µM in test [2].
Taken in the same sequence, the figures for `CC(=O)N1CC[C@H]1C(=O)N1C[C@H](O)C[C@H]1C(=O)N[C@H](Cc1ccc(-c2ccccc2)cc1)C(N)=O` were 57.5 µM and 48 µM.
Consider `CC(=O)N[C@H](C(=O)N1C[C@H](O)C[C@H]1C(=O)N[C@H](Cc1ccccc1)C(N)=O)C(C)(C)C`, for which the Kd in test [1] was > 57.5 µM; in test [2] it was > 51.8 µM.
